Measurements published in PubChem BioAssay (NCI).
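Assay format: 96-well plates, 48-hour exposure. TGI denotes the concentration required for complete inhibition of growth.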

Experiments:
Experiment in all cases: NCI-60 cell line screen, 48 h
IGROV1 ovarian = tested on: IGROV1 ovarian
SK-MEL-5 melanoma = tested on: SK-MEL-5 melanoma
U251 CNS = tested on: U251 CNS
HS 578T breast = tested on: HS 578T breast
RPMI-8226 leukemia = tested on: RPMI-8226 leukemia
SK-MEL-2 melanoma = tested on: SK-MEL-2 melanoma
NCI-H226 lung = tested on: NCI-H226 lung
NCI-H522 lung = tested on: NCI-H522 lung
BT-549 breast = tested on: BT-549 breast
NCI-H460 lung = tested on: NCI-H460 lung
SF-268 CNS = tested on: SF-268 CNS

COC(=O)CCC(=O)c1ccc2c(c1)CC1(Cc3ccccc3C1)C2
TGI (IGROV1 ovarian): > 100 µM | TGI (SK-MEL-5 melanoma): 33.1 µM | TGI (U251 CNS): > 100 µM | TGI (HS 578T breast): > 100 µM | TGI (RPMI-8226 leukemia): > 100 µM | TGI (SK-MEL-2 melanoma): > 100 µM | TGI (NCI-H226 lung): 94.9 µM | TGI (NCI-H522 lung): > 100 µM

O=Cc1ccc(Oc2c3ccccc3nc3ccccc23)cc1
TGI (BT-549 breast): 37.4 µM | TGI (SK-MEL-5 melanoma): 24.2 µM | TGI (U251 CNS): 21.9 µM | TGI (NCI-H460 lung): 33.8 µM | TGI (HS 578T breast): 7.91 µM | TGI (RPMI-8226 leukemia): 5.95 µM | TGI (NCI-H226 lung): 20.2 µM | TGI (SF-268 CNS): 17.6 µM

C[C@@H](Br)[C@@H]1CC[C@H]2c3[nH]c4ccccc4c3CCN2C1
TGI (IGROV1 ovarian): 77.8 µM | TGI (SK-MEL-5 melanoma): 29.4 µM | TGI (U251 CNS): 55.8 µM | TGI (NCI-H460 lung): 70.1 µM | TGI (HS 578T breast): 33.9 µM | TGI (RPMI-8226 leukemia): 37.4 µM | TGI (SK-MEL-2 melanoma): 50.6 µM | TGI (NCI-H226 lung): > 100 µM | TGI (SF-268 CNS): > 100 µM | TGI (NCI-H522 lung): 29.5 µM

Cc1cccc2c1CC1(Cc3c(C)cccc3C1=O)C2=O
TGI (IGROV1 ovarian): > 100 µM | TGI (SK-MEL-5 melanoma): > 100 µM | TGI (U251 CNS): > 100 µM | TGI (NCI-H460 lung): > 100 µM | TGI (HS 578T breast): > 100 µM | TGI (RPMI-8226 leukemia): > 100 µM | TGI (SK-MEL-2 melanoma): > 100 µM | TGI (SF-268 CNS): > 100 µM | TGI (NCI-H522 lung): > 100 µM

O=c1n(CC2CO2)c2ccccc2n1CC1CS1 (centres undefined)
TGI (IGROV1 ovarian): > 100 µM | TGI (NCI-H460 lung): > 100 µM | TGI (RPMI-8226 leukemia): > 100 µM | TGI (SK-MEL-2 melanoma): > 100 µM | TGI (NCI-H226 lung): > 100 µM | TGI (SF-268 CNS): > 100 µM | TGI (NCI-H522 lung): > 100 µM

O=[N+]([O-])c1cnccc1-n1nnc2ccccc21
TGI (IGROV1 ovarian): 47.6 µM | TGI (SK-MEL-5 melanoma): 33.3 µM | TGI (U251 CNS): > 81.8 µM | TGI (NCI-H460 lung): > 87 µM | TGI (RPMI-8226 leukemia): > 100 µM | TGI (SK-MEL-2 melanoma): 35.8 µM | TGI (NCI-H226 lung): 49.8 µM | TGI (SF-268 CNS): > 62.3 µM | TGI (NCI-H522 lung): 38.5 µM

CSc1nc(NC2OC(CO)C(O)C(O)C2O)c(N)c(=O)[nH]1 (centres undefined)
TGI (IGROV1 ovarian): > 100 µM | TGI (SK-MEL-5 melanoma): > 100 µM | TGI (U251 CNS): > 100 µM | TGI (NCI-H460 lung): > 100 µM | TGI (RPMI-8226 leukemia): > 100 µM | TGI (SK-MEL-2 melanoma): > 100 µM | TGI (NCI-H226 lung): > 100 µM | TGI (SF-268 CNS): > 100 µM | TGI (NCI-H522 lung): > 100 µM

COC1=C2C[C@](OC)(C#CC=CC#CC2O)CC1(C)C (some centres undefined)
TGI (IGROV1 ovarian): 63.2 µM | TGI (BT-549 breast): > 100 µM | TGI (SK-MEL-5 melanoma): > 100 µM | TGI (U251 CNS): > 100 µM | TGI (NCI-H460 lung): > 100 µM | TGI (HS 578T breast): > 100 µM | TGI (RPMI-8226 leukemia): > 100 µM | TGI (NCI-H226 lung): > 100 µM | TGI (SF-268 CNS): > 100 µM | TGI (NCI-H522 lung): > 100 µM

CCN(CC)C(=O)CCNC(C)Cc1c[nH]c2ccccc12 (centres undefined)
TGI (IGROV1 ovarian): > 100 µM | TGI (SK-MEL-5 melanoma): > 100 µM | TGI (U251 CNS): > 100 µM | TGI (NCI-H460 lung): > 100 µM | TGI (HS 578T breast): > 100 µM | TGI (RPMI-8226 leukemia): > 100 µM | TGI (SK-MEL-2 melanoma): > 100 µM | TGI (NCI-H226 lung): > 100 µM | TGI (SF-268 CNS): > 100 µM | TGI (NCI-H522 lung): > 100 µM

CCOc1ccnc2c(OC)c(C)c3nc4ccccc4nc3c12
TGI (IGROV1 ovarian): > 100 µM | TGI (SK-MEL-5 melanoma): > 100 µM | TGI (U251 CNS): > 100 µM | TGI (NCI-H460 lung): > 100 µM | TGI (HS 578T breast): > 100 µM | TGI (RPMI-8226 leukemia): > 100 µM | TGI (SK-MEL-2 melanoma): > 100 µM | TGI (NCI-H226 lung): > 100 µM | TGI (SF-268 CNS): > 100 µM | TGI (NCI-H522 lung): > 100 µM

COc1cc(CNC(=O)CCCCCCCCCCSC#N)ccc1O
TGI (IGROV1 ovarian): 22.9 µM | TGI (BT-549 breast): 44.6 µM | TGI (SK-MEL-5 melanoma): 19.4 µM | TGI (U251 CNS): 34.1 µM | TGI (NCI-H460 lung): 38.2 µM | TGI (HS 578T breast): 40.9 µM | TGI (RPMI-8226 leukemia): 59.5 µM | TGI (SK-MEL-2 melanoma): 28.8 µM | TGI (NCI-H226 lung): 37.8 µM | TGI (NCI-H522 lung): 27.8 µM

COC(=O)C(Cc1cc(OC)c(OC)c(OC)c1)(NC(=O)c1ccccc1)P(=O)(OC)OC (centres undefined)
TGI (IGROV1 ovarian): > 100 µM | TGI (SK-MEL-5 melanoma): > 100 µM | TGI (U251 CNS): > 100 µM | TGI (NCI-H460 lung): > 100 µM | TGI (RPMI-8226 leukemia): > 100 µM | TGI (SK-MEL-2 melanoma): > 100 µM | TGI (NCI-H226 lung): > 100 µM | TGI (SF-268 CNS): > 100 µM | TGI (NCI-H522 lung): > 100 µM
